From ChEMBL document CHEMBL5120924 (J Nat Prod, 2022)

What was measured:
[1] = system: OVCAR-3; assay: Cytotoxicity against human OVCAR-3 cells assessed as reduction in cell viability measured after 72 hrs by celltiter-blue cell viability assay; assay type: functional, cell-based; settings: OVCAR-3, 72 h
[2] = system: MDA-MB-435; assay: Cytotoxicity against human MDA-MB-435 cells assessed as reduction in cell viability measured after 72 hrs by celltiter-blue cell viability assay; assay type: functional, cell-based; settings: MDA-MB-435, 72 h

Compound | IC50 [1] | IC50 [2]
COc1cc(O)c2c(c1)[C@H]1O[C@@H]1C[C@H](OC(C)=O)[C@H](O)C(=O)/C=C\C[C@H](C)OC2=O | 1700 nM | 1700 nM
COC(=O)O[C@H]1C[C@H]2O[C@@H]2c2cc(OC)cc(O)c2C(=O)O[C@@H](C)C/C=C\C(=O)[C@H]1O | 1700 nM | 1700 nM
C=CCOC(=O)O[C@@H]1C(=O)/C=C\C[C@H](C)OC(=O)c2c(O)cc(OC)cc2[C@H]2O[C@@H]2C[C@@H]1O | 1700 nM | 1700 nM
CCOC(=O)O[C@H]1C[C@H]2O[C@@H]2c2cc(OC)cc(O)c2C(=O)O[C@@H](C)C/C=C\C(=O)[C@H]1O | 1700 nM | 1700 nM
COc1cc(O)c2c(c1)[C@H]1O[C@@H]1C[C@H](OC(=O)/C=C\C(=O)O)[C@H](OC(=O)/C=C\C(=O)O)C(=O)/C=C\C[C@H](C)OC2=O | 1700 nM | 1700 nM
COC(=O)O[C@@H]1C(=O)/C=C\C[C@H](C)OC(=O)c2c(O)cc(OC)cc2[C@H]2O[C@@H]2C[C@@H]1O | 1700 nM | 1700 nM
COc1cc(O)c2c(c1)[C@H]1O[C@@H]1C[C@H](O)[C@H](O)C(=O)/C=C\C[C@H](C)OC2=O [HYPOTHEMYCIN] | 2600 nM | 1900 nM
COc1cc(O)c2c(c1)[C@H]1O[C@@H]1C[C@H](O)[C@H](OC(C)=O)C(=O)/C=C\C[C@H](C)OC2=O | 1700 nM | 1700 nM
COc1cc(O)c2c(c1)[C@H]1O[C@@H]1C[C@H](OC(=O)CCC(=O)O)[C@H](O)C(=O)/C=C\C[C@H](C)OC2=O | 1700 nM | 1700 nM
COc1cc(O)c2c(c1)[C@H]1O[C@@H]1C[C@H](OC(=O)/C=C\C(=O)O)[C@H](O)C(=O)/C=C\C[C@H](C)OC2=O | 1700 nM | 1700 nM
C=CCOC(=O)O[C@H]1C[C@H]2O[C@@H]2c2cc(OC)cc(O)c2C(=O)O[C@@H](C)C/C=C\C(=O)[C@H]1O | 1700 nM | 1700 nM
